Data from ChEMBL document CHEMBL4354832, “Discovery of a Covalent Inhibitor of KRASG12C (AMG 510) for the Treatment of Solid Tumors” (J Med Chem, 2020).
≈ marks a conversion by molar mass, not a printed value. Where “and” joins values, the source holds several entries; their conditions need not be identical. Identical values can stand only once.

Experiments:
[1] = molecular target: GTPase KRas (Homo sapiens, UniProt P01116, C118A/G12C); test: Inhibition of GDP bound recombinant human His-tagged KRAS G12C/C118A mutant (1 to 169 residues) assessed as reduction in SOS1-mediated GDP/GTP nucleotide exchange by measuring the disruption between GDP-bound recombinant His-tagged KRAS G12C/C118A (1 to 169 residues) and Ras binding domain of GST-tagged c-RAF (1 to 149 residues) preincubated for 5 mins followed by SOS1 and GTP addition and further incubated for 30 mins by AlphaLISA assay
[2] = molecular target: GTPase KRas (Homo sapiens, UniProt P01116); test: Inhibition of KRAS in human MIAPaca2 cells assessed as decrease in EGF-stimulated ERK1/2 phosphorylation preincubated for 2 hrs followed by EGF stimulation; assay type: cell-based
[3] = Intrinsic clearance in human cryopreserved hepatocytes assessed per 10^6 cells at 0.5 uM measured upto 60 mins by LCMS analysis; assay type: ADME, cell-based, Hepatocyte; details: read-out: CLH
[4] = Intrinsic clearance in mouse cryopreserved hepatocytes assessed per 10^6 cells at 0.5 uM measured upto 60 mins by LCMS analysis; assay type: ADME, cell-based, Hepatocyte; details: read-out: CLH
[5] = test system: MIA PaCa-2; test: Antiproliferative activity against human MIAPaCa2 cells harboring KRAS G12C point mutant assessed as cell growth inhibition after 72 hrs by Celltiter-Glo luminescent cell viability assay; assay type: functional, cell-based; details: MIA PaCa-2, 72 h
[6] = test system: A549; test: Antiproliferative activity against human A549 cells harboring KRAS G12S point mutant assessed as cell growth inhibition after 72 hrs by Celltiter-Glo luminescent cell viability assay; assay type: functional, cell-based; details: A549, 72 h
[7] = Solubility of compound in FaSSIF incubated for 48 to 72 hrs under shaking conditions by LCMS analysis; assay type: physicochemical
[8] = Permeability of compound across apical to basolateral membrane in MDCK2 cells at 10 to 50 uM incubated for 2 hrs under shaking condition by LC-MS/MS analysis; assay type: ADME, cell-based, Canis lupus familiaris, MDCK-II; details: dog, MDCK; read-out: permeability
[9] = Half life in BALB/c mouse at 1 mg/kg, iv or 10 mg/kg, po; assay type: ADME, organism-based; details: in vivo
[10] = Clearance in BALB/c mouse at 1 mg/kg, iv or 10 mg/kg, po; assay type: ADME, organism-based; details: in vivo
[11] = Oral bioavailability in BALB/c mouse at 10 mg/kg; assay type: ADME, organism-based; details: in vivo
[12] = Volume of distribution at steady state in BALB/c mouse at 1 mg/kg, iv or 10 mg/kg, po; assay type: ADME, organism-based; details: in vivo, read-out: Vdss
[13] = Solubility of compound in 0.01N HCl at pH 2 incubated for 48 to 72 hrs under shaking conditions by LCMS analysis; assay type: physicochemical
[14] = Solubility of compound in PBS buffer at pH 7.4 incubated for 48 to 72 hrs under shaking conditions by LCMS analysis; assay type: physicochemical

Row | SMILES | IC50 [1] [nM] | IC50 [2] | hepatocyte CLint at 0.5 µM [3] [µL/min/1e6 cells] | hepatocyte CLint at 0.5 µM [4] [µL/min/1e6 cells] | IC50 [5] [nM] | IC50 [6] [nM] | solubility thermodynamic [7] [µM] | Papp A→B at 2 h, up to 50 µM [8] [×10⁻⁶ cm/s] | half-life [9] [min] | clearance [10] [mL/min/kg] | bioavailability [11] [%] | Vd [12] [L/kg] | solubility thermodynamic [13] [µM] | solubility thermodynamic [14] [µM]
1 | C=CC(=O)N1CCN(c2nnc(-c3ccccc3OC)c3cc(-c4c(O)cccc4F)c(Cl)cc23)CC1 | 9150 | 8050 nM |  |  |  |  |  |  |  |  |  |  |  | 
2 | C=CC(=O)N1CCN(c2nc(=O)n(-c3ccccc3C(C)C)c3cc(-c4ccccc4Cl)c(Cl)cc23)[C@@H](C)C1 |  | 220 nM | 317 | 397 | 18 | 7400 | 255 (≈ 143 µg/mL) | 6 |  |  |  |  |  | 
3 | C=CC(=O)N1CCN(c2nc(=O)n(-c3ccccc3C(C)C)c3cc(-c4c(O)cccc4F)c(Cl)cc23)CC1 | 101 | 335 nM and 130 nM | 56 | 195 | 33 | 10300 | 191 (≈ 104 µg/mL) | 2 | 204 | 5 | < 0.5 | 0.8 |  | 
4 | C=CC(=O)N1CCN(c2ncnc3c(F)c(-c4c(O)cccc4F)c(Cl)cc23)CC1 | 939 | 831 nM |  |  |  |  |  |  |  |  |  |  |  | 
5 | C=CC(=O)N1CCN(c2nc(=O)n(-c3ncccc3C(C)C)c3nc(-c4c(O)cccc4F)c(Cl)cc23)[C@@H](C)C1 |  | 53 nM |  |  |  |  |  |  |  |  |  |  |  | 
6 | C=CC(=O)N1CCN(c2nc(=O)n(-c3ccccc3C(C)C)c3nc(-c4ccccc4Cl)c(Cl)cc23)[C@@H](C)C1 |  |  | 205 | 319 | 16 | 7100 | 175 (≈ 98.4 µg/mL) | 12 | 36 | 90 | 12 | 4.8 |  | 
7 | C=CC(=O)N1CCN(c2nc(=O)n(-c3c(C)ncnc3C(C)C)c3nc(-c4c(O)cccc4F)c(F)cc23)[C@@H](C)C1 |  |  | 5 | 65 | 9 | > 50000 | 500 (≈ 281 µg/mL) | < 1 | 18 | 78.3 | 10 | 1.7 | 500 (≈ 281 µg/mL) | 495 (≈ 278 µg/mL)
8 | C=CC(=O)N1CCN(c2nc(=O)n(-c3c(C)cccc3C(C)C)c3nc(-c4c(O)cccc4F)c(F)cc23)[C@@H](C)C1 |  |  | 37 | 111 | 11 | 11600 | 164 (≈ 91.8 µg/mL) | 22 | 30 | 33.3 | < 0.5 | 1.1 | 24 (≈ 13.4 µg/mL) | 41 (≈ 22.9 µg/mL)
9 | C=CC(=O)N1CCN(c2nc(=O)n(-c3ccccc3C(C)C)c3nc(-c4ccccc4F)c(Cl)cc23)[C@@H](C)C1 |  |  | 135 | 236 | 5 | 7900 | 224 (≈ 122 µg/mL) | 20 | 36 | 60 | 9 | 2.3 |  | 11 (≈ 6.01 µg/mL)
10 | C=CC(=O)N1CCN(c2nc(=O)n(-c3ccnn3C(C)C)c3nc(-c4c(O)cccc4F)c(Cl)cc23)[C@@H](C)C1 |  | 218 nM |  |  |  |  |  |  |  |  |  |  |  | 
11 | C=CC(=O)N1CCN(c2nnc(-c3ccccc3CC)c3cc(-c4c(O)cccc4F)c(Cl)cc23)CC1 | 903 | 2580 nM |  |  |  |  |  |  |  |  |  |  |  | 
12 | C=CC(=O)N1CCN(c2nnc(-c3ccccc3Cl)c3cc(-c4c(O)cccc4F)c(Cl)cc23)CC1 | 3520 | 3530 nM |  |  |  |  |  |  |  |  |  |  |  | 
13 | C=CC(=O)N1CCN(c2nc(=O)n(-c3ccccc3C(C)C)c3cc(-c4ccccc4F)c(Cl)cc23)[C@@H](C)C1 |  |  | 166 | 356 | 6 | 5800 | 260 (≈ 142 µg/mL) | 10 | 54 | 26.7 | 12 | 1.4 |  | 
14 | C=CC(=O)N1CCN(c2nc(=O)n(-c3ccccc3C(C)C)c3cc(-c4ccccc4C(F)(F)F)c(Cl)cc23)[C@@H](C)C1 |  |  | 148 | 270 | 40 | 7400 | 218 (≈ 130 µg/mL) | 3 |  |  |  |  |  | 
15 | C=CC(=O)N1CCN(c2nnc(-c3ccccc3C3CC3)c3cc(-c4c(O)cccc4F)c(Cl)cc23)CC1 | 1550 | 7150 nM |  |  |  |  |  |  |  |  |  |  |  | 
16 | C=CC(=O)N1CCN(c2nc(=O)n(-c3ccccc3C(C)C)c3cc(-c4cc(O)cc5ccccc45)c(Cl)cc23)CC1 |  |  |  |  | 17 | 2700 | 71 (≈ 41.1 µg/mL) |  |  |  |  |  |  | 
17 | C=CC(=O)N1CCN(c2nc(=O)n(-c3ccccc3C(C)C)c3cc(-c4c(O)cccc4F)c(Cl)cc23)[C@@H](C)C1 |  | 28 nM | 113 | 263 | 14 | 15300 | 226 (≈ 127 µg/mL) | 1 |  |  |  |  |  | 
18 | C=CC(=O)N1CCN(c2nc(=O)n(-c3ccccc3C3CC3)c3nc(-c4c(O)cccc4F)c(Cl)cc23)[C@@H](C)C1 | 225 | 109 nM |  |  |  |  |  |  |  |  |  |  |  | 
19 | C=CC(=O)N1CCN(c2nc(=O)n(-c3ccccc3C(C)C)c3cc(-c4c(C)ccc5[nH]ncc45)c(Cl)cc23)CC1 |  | 8 nM | 121 | 180 | 4 | 1700 | 218 (≈ 124 µg/mL) | 4 | 168 | 70 | < 0.5 | 5.3 |  | 
20 | C=CC(=O)N1CCN(c2nnc(-c3ccccc3)c3cc(-c4c(O)cccc4F)c(Cl)cc23)CC1 | 20100 | 58000 nM |  |  |  |  |  |  |  |  |  |  |  | 
21 | C=CC(=O)N1CCN(c2nc(=O)n(-c3ccccc3C(C)C)c3cc(-c4ccccc4F)c(Cl)cc23)CC1 |  |  | 197 | 415 | 22 | 6400 | 344 (≈ 183 µg/mL) | 7 |  |  |  |  |  | 
22 | C=CC(=O)N1CCN(c2nc(=O)n(-c3c(C)cccc3C)c3nc(-c4c(O)cccc4F)c(Cl)cc23)[C@@H](C)C1 |  | 199 nM |  |  |  |  |  |  |  |  |  |  |  | 
23 | C=CC(=O)N1CCN(c2nnc(-c3ccccc3C)c3cc(-c4c(O)cccc4F)c(Cl)cc23)CC1 | 5710 | 3330 nM |  |  |  |  |  |  |  |  |  |  |  | 
24 | C=CC(=O)N1CCN(c2nnc(-c3ccccc3C(C)C)c3cc(-c4c(O)cccc4F)c(Cl)cc23)CC1 | 683 | 1800 nM |  |  |  |  |  |  |  |  |  |  |  | 
25 | C=CC(=O)N1CCN(c2nc(=O)n(-c3ccccc3C(C)(C)C)c3nc(-c4c(O)cccc4F)c(Cl)cc23)[C@@H](C)C1 |  | 51 nM |  |  |  |  |  |  |  |  |  |  |  | 
